From patent US20220298541A1, “ASSAY FOR DETERMINING TARGET ENGAGEMENT IN REAL-TIME IN LIVING SYSTEMS” (Indian Institute of Science Education and Research, priority 2021, published 2022) come the findings set out here.

Residues, ends and D or L forms follow the SMILES beside them. *: point of attachment. Cbz = O=C(OCc1ccccc1)*; CH2F = FC*

Assay [1] has as its system caspase-3. Description: Quantification of caspase-3 activation using BRET-approach of AbRGT in MCF-7 cells transiently transfected with pCMV-caspase-3-GGSRLuc 8.6. As to conditions: STS 1 μM for 4 h; transiently transfected MCF-7 cells; Rh-VAD-FMK probe; untreated control 11±9.2. The class given is cell-based, human. A general note: BRET reads energy transfer from a luciferase to a nearby fluorophore.
Protocol: To determine the specific caspase-3 activation, pCMV-caspase-3-GGSRLuc 8.6 plasmid was overexpressed in the MCF-7 cell line since it is caspase-3 null. The cells were subjected to treatment with Staurosporine (STS) (1 μM) for 4 h for the induction of apoptosis. […] Subsequently, cells were incubated with ABFP, Rh-VAD-FMK probe (BRET acceptor) for the labeling of PoI, and other proteases of the same family. The RLuc 8.6 substrate coelenterazine h was added to the cells, and the average radiance was recorded in the donor emission channel, RLuc 8.6 (520-540 nm), and the acceptor emission channel, rhodamine (580-600 nm) channel. The BRET measurements were done by calculating the mBRET values for the STS treated versus untreated samples using the following equation.^7 Here, acceptor and donor is represented by (A) and (D), respectively.

Assay [2] has as its target T1, caspase-3 (Homo sapiens, UniProt P42574).
T1 construct: expressed in transfected cells; host or cells: MCF-7 (caspase-3 null); 2 in A4
T1 sequence (P42574 29-175 limits assumed): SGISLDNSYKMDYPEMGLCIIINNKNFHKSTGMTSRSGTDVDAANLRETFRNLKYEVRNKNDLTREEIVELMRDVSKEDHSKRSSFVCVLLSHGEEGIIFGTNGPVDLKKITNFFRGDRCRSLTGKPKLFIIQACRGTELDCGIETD
T1 sequence (P42574 176-277 limits assumed): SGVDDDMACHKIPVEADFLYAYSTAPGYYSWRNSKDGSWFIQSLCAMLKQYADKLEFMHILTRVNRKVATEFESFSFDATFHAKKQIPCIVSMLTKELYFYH
In words: Screening protease inhibitors by BRET-approach of AbRGT in 96 well plates, caspase-3 RLuc transfected MCF-7 cells. The class given is cell-based. The text has this: To show BRET-approach of AbRGT can be used for the high-throughput screening of inhibitors four different inhibitors; Z-VAD-FMK, C-inhibitor-II, E-64, and Q-VD-OPh were selected. Z-VAD-FMK, E-64, and Q-VD-OPh are irreversible inhibitors, while cpm-VAD-CHO is a reversible inhibitor. Z-VAD-FMK and Q-VD-OPh are widely known pan-caspase inhibitors that inhibit caspases with a different mechanism.
For inhibitor screening in a high-throughput format, caspase-3 RLuc transfected MCF-7 cells in 96 well plates were treated with STS (1 μM) for 4 h. Subsequently, after STS treatment, cells were incubated with Z-VAD-FMK or E64 or Q-VD-OPh inhibitors at two different concentrations (25 or 50 μM) for 1 h. Cells were then labeled with the Rh-VAD-FMK probe for 1 h, followed by the addition of coelenterazine h. Immediately after coelenterazine h addition, average radiance was recorded in the donor emission and the acceptor emission channel. The BRET measurements were done by calculating the mBRET values of each sample.

The test system of assay [3] is caspase-3. Description: Quantification of caspase-3 activation in Caspase-3 RLuc expressing stable MCF-7 clone no. 2 by BRET-approach of AbRGT. The class given is cell-based, human. The method, then: Luciferase activity in the MCF7 Caspase3-GGS-RLuc8.6 clone no. 2, 3, 4 was measured by the addition of luciferase substrate, coelentrazine. Immediately after substrate addition, average radiance value was recorded and plotted as a bar graph (FIG. 4.8). […] The caspase-3 activity in the clone 2 cells further quantified by the BRET-approach of AbRGT. MCF-7 Caspase3-GGS-RLuc8.6 clone no. 2 cells were treated with increasing concentration (0, 50, 100, and 200 nM) of STS for 4 h. Subsequently, cells were incubated with Rh-VAD-FMK probe for 1 h followed by the addition of coelentrazine h. Immediately after substrate addition, average radiance was recorded at donor and acceptor filters and the mBRET values were calculated and plotted as a bar graph (FIG. 9).

Assay [4] deals with T1, caspase-3. In words: Effect of protease inhibitor on STS dependent caspase activation (BRET based AbRGT, Rh-VAD-FMK probe). The class given is cell-based. As to conditions: STS 0-4 μM followed by 1 h treatment with 50 μM Z-VAD-FMK; transiently transfected cells. The method, then:
To check the effect of protease inhibitor Z-VAD-FMK on caspase activation, the pCMV-caspase-3-GGS-RLuc8.6 transiently transfected cells were treated with increasing concentration of STS(0-4 μM) followed by 1 h treatment of 50 μM of Z-VAD-FMK. The caspase3 activation was checked by BRET based AbRGT approach by using Rh-VAD-FMK probe. […] Thus we can use the BRET-approach of AbRGT to screen caspase inhibitors and activators. (FIG. 6).

As to `CN[C@@H]1C[C@H]2O[C@@](C)([C@@H]1OC)n1c3ccccc3c3c4c(c5c6ccccc6n2c5c31)C(=O)NC4` [STS, Staurosporine], the “mBRET value (indirect readout of specific caspase-3 activation)” value in assay [1] is recorded as 60±0.4. Also, in assay [2] (STS 1 μM for 4 h, no inhibitor, 96 well plate), the “mBRET value of the sample in the absence of inhibitor” value turned out to be 60±0.4. In addition, the “change of mBRET values with increasing STS concentration” value in assay [3] (0, 50, 100 and 200 nM STS for 4 h, clone no. 2) was “increase”. The “increase in mBRET as compared to the untreated cells” value in assay [3] (200 nM STS for 4 h, MCF-7 Caspase3-GGS-RLuc8.6 clone no. 2) is roughly 4 fold.

For `CC(C)[C@H](NC(=O)c1ccc2ccccc2n1)C(=O)N[C@@H](CC(=O)O)C(=O)COc1c(F)cccc1F` [Q-VD-OPh], in assay [2] (STS 1 μM 4 h, then inhibitor 25 or 50 μM for 1 h), the “mBRET values as compared to Z-VAD-FMK inhibitor” value was “higher”.

As for `COC(=O)C[C@H](NC(=O)[C@H](C)NC(=O)[C@@H](NC(=O)OCc1ccccc1)C(C)C)C(=O)CF` [Z-VAD-FMK] (Cbz-Val-Ala-Asp(OMe)-CH2F), the “effect on caspase activation in presence of STS compared to only STS treated cells” value in assay [4] is on record as “inhibits the caspase activation”.
